Assay in all cases: relative viability (nuclei count vs DMSO), 5 days (fraction); higher = more cells survive
Compound in assay [1]: O=c1[nH]cc(F)c(=O)[nH]1 [5-Fluorouracil] + C[C@@H](Oc1cc(-c2cnn(C3CCNCC3)c2)cnc1N)c1c(Cl)ccc(F)c1Cl [Crizotinib] (partner 1 µM)
In outline: (§1)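 A single step with final 0.05% Triton X-100, 1% formaldehyde and 1 ug/ml Hoechst fixed the cells and stained nuclei 5 days after treatment. Lung cancer cell lines in 1536-well plates had been treated by pin tool the day after seeding with one drug alone or a fixed anchor-drug dose plus five library-drug doses (not always all listed) in √10 steps, and nuclei were counted on 4× images. Relative viability is the ratio of nuclei in treated wells to nuclei in vehicle wells, taken as the median of duplicate plates.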

Compound in assay [2]: O=c1[nH]cc(F)c(=O)[nH]1 [5-Fluorouracil] + CS(=O)(=O)CCNCc1ccc(-c2ccc3ncnc(Nc4ccc(OCc5cccc(F)c5)c(Cl)c4)c3c2)o1 [Lapatinib] (partner 2 µM)
The method in brief: as §1

Compound in assay [3]: CC1=C(CC(=O)O)c2cc(F)ccc2/C1=C\c1ccc([S+](C)[O-])cc1 [Sulindac] + COc1cc2c(Oc3ccc(NC(=O)C4(C(=O)Nc5ccc(F)cc5)CC4)cc3F)ccnc2cc1OCCCN1CCOCC1 [Foretinib] (partner 0.25 µM)
The method in brief:
as §1

Compound in assay [4]: CN[C@@H]1C[C@H]2O[C@@](C)([C@@H]1OC)n1c3ccccc3c3c4c(c5c6ccccc6n2c5c31)C(=O)NC4 [Staurosporine] + N=C(N)NC(=N)NCCc1ccccc1 [Phenformin] (partner 250 µM)
In outline: as §1

Experimental findings from the supplement of paper PMC10307832 are described below.

In the case of UMC-11, the relative viability in assay [1] (first compound 0.02 µM) worked out at 0.52; in assay [1] (first compound 0.2 µM), 0.441; in assay [1] (first compound 0.6325 µM), 0.303; in assay [1] (first compound 2 µM), 0.232; in assay [2] (first compound 0.02 µM), 0.905; in assay [2] (first compound 0.2 µM), 0.746. The relative viability was determined as 0.434 in assay [2] (first compound 0.6325 µM); 0.443 in assay [2] (first compound 2 µM); 1.33 in assay [3] (first compound 0.08 µM); 1.12 in assay [3] (first compound 0.253 µM); 0.739 in assay [3] (first compound 0.8 µM); 0.986 in assay [3] (first compound 2.53 µM). For the same cell line, the relative viability in assay [3] (first compound 8 µM) is 1.12; in assay [4] (first compound 0.005 µM), 0.305; in assay [4] (first compound 0.01581 µM), 0.168; in assay [4] (first compound 0.05 µM), 0.135; in assay [4] (first compound 0.1581 µM) it was 0.0915; in assay [4] (first compound 0.5 µM), 0.13.
